Laboratory results as given in PMC10201049, “Rhein-attenuates LPS-induced acute lung injury via targeting NFATc1/Trem2 axis” (Inflammation Research, 2023).

Target: T1, NFATc1 (Mus musculus, UniProt O88942)
T1 construct: endogenous protein in RAW264.7 cell lysate
T1 sequence (O88942 1-717): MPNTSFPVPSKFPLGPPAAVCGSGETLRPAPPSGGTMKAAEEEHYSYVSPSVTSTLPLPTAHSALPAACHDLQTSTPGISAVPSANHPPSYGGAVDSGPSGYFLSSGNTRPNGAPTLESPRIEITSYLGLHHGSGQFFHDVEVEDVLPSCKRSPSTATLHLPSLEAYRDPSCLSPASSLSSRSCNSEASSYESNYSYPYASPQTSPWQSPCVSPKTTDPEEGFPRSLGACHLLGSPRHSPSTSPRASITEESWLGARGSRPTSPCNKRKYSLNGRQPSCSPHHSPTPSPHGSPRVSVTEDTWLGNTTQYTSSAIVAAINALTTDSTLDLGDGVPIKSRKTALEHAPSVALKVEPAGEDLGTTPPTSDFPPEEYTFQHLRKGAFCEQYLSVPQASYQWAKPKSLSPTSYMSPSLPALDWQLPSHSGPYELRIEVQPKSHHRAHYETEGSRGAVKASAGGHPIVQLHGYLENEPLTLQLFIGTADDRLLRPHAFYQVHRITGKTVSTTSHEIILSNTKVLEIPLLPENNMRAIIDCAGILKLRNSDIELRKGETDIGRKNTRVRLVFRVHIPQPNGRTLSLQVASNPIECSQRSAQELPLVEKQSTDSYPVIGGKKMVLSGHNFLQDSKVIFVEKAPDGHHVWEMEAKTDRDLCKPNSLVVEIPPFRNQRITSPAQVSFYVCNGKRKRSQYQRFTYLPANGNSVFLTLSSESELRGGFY
Assay: biotin pull-down on streptavidin beads, western blot
Type: biochemical
Details: labelled compound (biotin conjugate of rhein, linker only drawn); biotin alone as control; RAW264.7 lysate, 4 °C bead loading

O=C1N[C@H]2[C@H](CS[C@H]2CCCCC(=O)Oc2cccc3c2C(=O)c2c(O)cc(C(=O)O)cc2C3=O)N1 [Bio-Rhein, Biotinylated-Rhein]
biotin pull-down on streptavidin beads, western blot: The results of western immunoblotting indicated the direct interaction between rhein and NFATc1
